Data from the supplement of paper PMC10307832.

Compound: O=C(NCCCNc1nc(Nc2cccc(NC(=O)N3CCCC3)c2)ncc1I)c1cccs1 [BX 795]
Experiment: relative viability (nuclei count vs DMSO), 5 days (fraction); higher = more cells survive
Procedure, shortened: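 Acceptance criteria were a control CV below 25% and at least one doubling per plate. Lung cancer cell lines in 1536-well plates got five library-drug doses (not always all listed) √10 apart by pinning and were left 5 days with no medium change. Viability divides treated-well nuclei by vehicle-well nuclei and is the median across plates. Nuclei were counted by MetaXpress from 4× Hoechst images.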

Cell Line | relative viability (0.04 µM) | relative viability (0.1265 µM) | relative viability (0.4 µM) | relative viability (1.265 µM)
201T | 0.983 | 0.996 | 1.07 | 1.04
A549 | 1.01 | 1.08 | 0.97 | 0.671
A-427 | 1.08 | 0.905 | 0.998 | 0.808
ABC-1 | 0.888 | 0.797 | 0.917 | 0.906
BEN | 0.907 | 1.12 | 0.952 | 1.05
CAL-12T | 0.949 | 0.992 | 0.882 | 0.623
COR-L23 | 1.04 | 1.04 | 1.05 | 0.669
COR-L 105 | 0.985 | 0.868 | 0.776 | 0.661
ChaGo-K-1 | 0.947 | 1.06 | 0.959 | 0.981
EKVX | 0.934 | 0.975 | 0.883 | 0.93
EMC-BAC-2 | 0.978 | 0.843 | 0.951 | 0.633
EPLC-272H | 1.01 | 0.899 | 0.885 | 0.748
H3255 | 0.985 | 1.07 | 1.02 | 0.949
HARA | 0.921 | 0.81 | 0.975 | 0.947
HCC-15 | 0.967 | 1.05 | 0.973 | 0.804
HCC-44 | 0.908 | 0.967 | 1.07 | 1.06
HCC-78 | 1.1 | 1 | 1.01 | 0.933
HCC-366 | 1.02 | 1.02 | 0.944 | 0.945
HCC-827 | 1 | 1.02 | 1.04 | 1.01
HOP-62 | 0.963 | 1.06 | 1.21 | 1
IA-LM | 1.02 | 1.03 | 1.12 | 0.86
LC-2-ad | 1.04 | 0.924 | 0.912 | 0.661
LCLC-97TM1 | 1.11 | 1.02 | 1.1 | 0.716
LCLC-103H | 1.02 | 1.01 | 0.937 | 0.985
LK-2 | 0.998 | 1.02 | 0.863 | 0.929

Cell Line | relative viability (0.04 µM) | relative viability (0.1265 µM) | relative viability (0.4 µM) | relative viability (1.265 µM)
LOU-NH91 | 1.01 | 0.967 | 0.982 | 0.961
LU99A | 0.946 | 0.894 | 0.84 | 0.778
LXF-289 | 0.962 | 1 | 1.02 | 0.9
NCI-H23 | 1.07 | 0.952 | 0.896 | 0.769
NCI-H322M | 1.09 | 0.964 | 1.12 | 1.25
NCI-H358 | 0.955 | 0.905 | 0.76 | 0.513
NCI-H441 | 1.39 | 1.24 | 1.48 | 0.802
NCI-H460 | 0.995 | 1.08 | 0.991 | 0.954
NCI-H520 | 0.99 | 1.04 | 0.869 | 0.733
NCI-H522 | 0.92 | 0.877 | 0.921 | 1.01
NCI-H596 | 1.05 | 1.04 | 1 | 0.933
NCI-H647 | 0.81 | 1.02 | 0.891 | 0.82
NCI-H650 | 0.933 | 1.02 | 0.954 | 0.805
NCI-H661 | 1.09 | 0.994 | 1.03 | 1.04
NCI-H727 | 1.01 | 0.899 | 0.978 | 1
NCI-H838 | 0.892 | 0.993 | 0.79 | 0.614
NCI-H1355 | 1.01 | 1.01 | 1.02 | 0.873
NCI-H1395 | 0.839 | 0.858 | 0.586 | 0.633
NCI-H1437 | 0.978 | 1.05 | 1.03 | 1.01
NCI-H1563 | 1.08 | 0.942 | 1.03 | 0.814
NCI-H1650 | 0.915 | 1.05 | 0.8 | 0.778
NCI-H1651 | 1.04 | 1.04 | 0.993 | 1
NCI-H1666 | 1.06 | 1.03 | 1.01 | 0.925
NCI-H1734 | 1.06 | 1.02 | 0.908 | 0.668
NCI-H1755 | 1.05 | 1.03 | 0.972 | 0.881

Cell Line | relative viability (0.04 µM) | relative viability (0.1265 µM) | relative viability (0.4 µM) | relative viability (1.265 µM)
NCI-H1792 | 0.93 | 0.818 | 1.12 | 0.867
NCI-H1793 | 1.09 | 0.917 | 1.05 | 0.808
NCI-H1915 | 1.03 | 0.974 | 0.955 | 0.903
NCI-H1944 | 1.06 | 0.996 | 1.16 | 0.958
NCI-H1975 | 0.977 | 1.07 | 0.858 | 0.806
NCI-H1993 | 1.05 | 0.983 | 0.926 | 0.893
NCI-H2009 | 0.981 | 0.976 | 0.996 | 0.782
NCI-H2023 | 0.906 | 0.904 | 0.571 | 0.6
NCI-H2085 | 1.01 | 1.03 | 0.981 | 0.97
NCI-H2087 | 1.07 | 1.14 | 1.15 | 0.941
NCI-H2126 | 1.01 | 1.02 | 1.1 | 0.983
NCI-H2170 | 0.955 | 0.951 | 0.958 | 0.942
NCI-H2228 | 1.07 | 1.21 | 1.04 | 0.871
NCI-H2342 | 1.03 | 0.939 | 0.924 | 0.978
NCI-H2347 | 1.14 | 1.01 | 1.28 | 0.935
NCI-H2405 | 1.06 | 0.963 | 0.988 | 0.89
NCI-H3122 | 0.981 | 1.01 | 1.04 | 1.06
PC-3 [JPC-3] | 1.07 | 0.979 | 1.04 | 1
PC-14 | 0.948 | 0.997 | 0.944 | 0.719
RERF-LC-KJ | 1.06 | 0.949 | 1.02 | 0.908
SK-LU-1 | 0.91 | 1.18 | 0.629 | 0.836
SK-MES-1 | 1.06 | 0.979 | 0.932 | 0.761
SW 900 | 0.856 | 0.759 | 1.04 | 0.813
SW 1573 | 0.918 | 0.984 | 1.1 | 0.651
UMC-11 | 0.896 | 0.995 | 0.802 | 0.675
